± gives the expanded uncertainty stated by the source.
Conditions: Crystal; DTA

Which Normal melting temperature does the source give for `[Br-].[Li+]` [lithium bromide] here?
Its Normal melting temperature is 551 ± 0.6 °C.

With `[F-].[Li+]` [lithium fluoride] as the molecule, how does the Normal melting temperature read?
Its Normal melting temperature is 844 ± 0.6 °C.

For `[Ag][I]` [silver iodide], which Normal melting temperature is on record?
The Normal melting temperature was 559 ± 0.6 °C.
